Where a name gives a salt, the structure may show the parent alone.
Experiments:
kappa brain receptor = target: T1, kappa brain receptor (Cavia porcellus, UniProt P41144); experiment: Kappa brain receptor binding (binding to kappa sites); details: guinea pig brain homogenate, tritiated kappa selective compound, 40 min, 25° C.
T1 construct: fresh guinea pig brain homogenates; from tissue; host or cells: guinea pig whole brain without cerebellum, fresh homogenate
Experimental: Radio receptor binding to kappa site is performed on fresh guinea pig brain homogenates prepared according to Kosterlitz (1981).
Whole brain without cerebellum is homogenized in 50 mM Tris-buffer (pH 7.4 at 0° C.) and centrifuged at 49,000×g for 10 min.
The pellet is then resuspended in the same buffer, incubated at 37° C. for 45 min and centrifuged again.
1.9 ml of the final homogenate (1:100 in Tris pH 7.4, 0° C.) is used for the binding assay.
The binding to the kappa sites is performed using a tritiated kappa selective compound. Final homogenate with solutions of the cold ligand and of the labelled ligand is incubated for 40 min at 25° C., filtered through Whatman GF/C glass filter discs and washed. The radioactivity bound to the filters is counted by liquid scintillation spectrophotometry.
The non-specific binding is determined in the presence of 500 nM of the benzomorphan non-selective compound Mr 2266.
The equilibrium dissociation constant […] and the maximum binding capacity (Bmax) are determined from the analysis of saturation curves, while the inhibition constant (Ki) is determined from the analysis of competition experiments (Hill 1910; Scatchard 1949; Cheng and Prusoff 1973; Gillan et al 1980).

[1] = P-phenylquinone-induced abdominal writhing test in mice (analgesia, mouse writhing, graded); assay type: in vivo, mouse (male Charles River, Swiss Strain); details: sc, 20 min, 20 min pretreatment, p-phenylquinone 2 mg/Kg i.p., 8 min observation
Text: The pharmacological activity of the compounds of this invention is illustrated by the mouse writhing test, described as follows:
P-phenylquinone-induced abdominal writhing test in mice
The methodology employed is based on that described by Sigmund et al, Proc. Soc. Exptl. Biol. 95, 729/1957, modified by Milne and Twomey, Agents and Actions, 10, 31/1980.
Male Charles River mice (Swiss Strain), 25-36 g body weight, were used. Animals were allowed food and water ad libitum and were randomized into groups of 10 prior to experimentation. Test compounds were dissolved in either distilled water or distilled water plus 0.1M AMS, and administered by the subcutaneous route in a final volume of 10 ml/Kg. Control animals received 10 ml/Kg of the appropriate vehicle alone. Following a pretreatment period of 20 min., mice were injected intraperitoneally with p-phenylquinone, 2 mg/Kg at 37° C. in a final volume of 10 mg/kg. […] During this period the number of abdominal writhing responses per animal were recorded where writhing consists of an intermittent contraction of the abdomen associated with hind leg extension.
The degree of antinociceptive protection afforded by the test compound was determined as the mean number of writhing responses observed in the treated group (T) expressed as a percentage of the mean number of writhing responses in the control group (C) according to the following formula:
[1-(T/C]×100%=% graded protection

T1 sequence (P41144 whole entry): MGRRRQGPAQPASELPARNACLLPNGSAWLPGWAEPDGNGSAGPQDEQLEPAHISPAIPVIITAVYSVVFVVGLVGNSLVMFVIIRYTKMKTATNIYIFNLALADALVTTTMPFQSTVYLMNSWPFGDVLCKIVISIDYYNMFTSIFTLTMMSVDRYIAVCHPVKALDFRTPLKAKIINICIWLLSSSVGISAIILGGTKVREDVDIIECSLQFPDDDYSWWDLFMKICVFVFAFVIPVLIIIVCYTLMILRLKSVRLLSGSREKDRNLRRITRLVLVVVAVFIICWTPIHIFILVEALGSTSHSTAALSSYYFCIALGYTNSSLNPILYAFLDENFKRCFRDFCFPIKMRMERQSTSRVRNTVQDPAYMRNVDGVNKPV

Row | SMILES | Ki (kappa brain receptor) | ED50 [1]
1 | CCCN(C)C[C@@H]1CCCCN1C(=O)Cc1ccc2c(c1)CCCC2=O [Example 9, (2S)-1-[1-oxo-3,4-dihydro-(2H)-napht-6-yl]acetyl-2-(N-methyl-N-propyl)aminomethyl piperidine hydrochloride] | 10 to 50 nM | 0.221 mg/kg
2 | CN(C[C@@H]1CCCCN1C(=O)Cc1ccc2c(c1)CCCC2=O)C1CC1 [Example 12, (2S)-1-[1-oxo-3,4-dihydro-(2H)-napht-6-yl]acetyl-2-(N-cyclopropyl-N-methyl)aminomethyl piperidine hydrochloride] | 50 nM | 0.141 mg/kg
3 | CN(C)CC1CC(C)(C)CCN1C(=O)Cc1ccc2c(c1)CCCC2=O (racemic) [Example 5, (±)-1-[1-oxo-3,4-dihydro-(2H)-napht-6-yl]acetyl-2-dimethylaminomethyl-4,4-dimethyl piperidine hydrochloride] | 65 nM | 0.377 mg/kg
4 | CCN(CC)C[C@@H]1CCCCN1C(=O)Cc1ccc2c(c1)CCCC2=O [Example 3, (2S)-1-[1-oxo-3,4-dihydro-(2H)-napht-6-yl]acetyl-2-diethylaminomethyl piperidine hydrochloride] | – | 0.427 mg/kg
5 | CN(C[C@@H]1CCCCN1C(=O)Cc1ccc2c(c1)CCCC2=O)C1CCCC1 [Example 18, (2S)-1-[1-oxo-3,4-dihydro-(2H)-napht-6-yl]acetyl-2-(N-cyclopentyl-N-methyl)aminomethyl piperidine hydrochloride .1/4 H2 O] | – | 0.21 mg/kg
6 | CN(C)C[C@@H]1CCCCN1C(=O)Cc1ccc2c(c1)CCCC2=O [Example 1, (2S)-1-[1-oxo-3,4-dihydro-(2H)-napht-6-yl]acetyl-2-dimethyl-aminomethyl piperidine hydrochloride] | – | 0.154 mg/kg
7 | CN(C[C@@H]1CCCCN1C(=O)Cc1ccc2c(c1)CCCC2=O)C1CCC1 [Example 17, (2S)-1-[1-oxo-3,4-dihydro-(2H)-napht-6-yl]acetyl-2-(N-cyclobutyl-N-methyl)aminomethyl piperidine hydrochloride] | – | 0.127 mg/kg
8 | CN(C)C[C@@H]1CC(C)(C)CCN1C(=O)Cc1ccc2c(c1)CCCC2=O [Example 15, (-)-1-[1-oxo-3,4-dihydro-(2H)-napht-6-yl]acetyl-2-dimethylaminomethyl-4,4-dimethylpiperidine D(-) tartrate] | 22.9 nM | 0.115 mg/kg
9 | CN(C)CC1CCC(C)(C)CN1C(=O)Cc1ccc2c(c1)CCCC2=O (racemic) [Example 6, (±)-1-[1-oxo-3,4-dihydro-(2H)-napht-6-yl]acetyl-2-dimethylaminomethyl-5,5-dimethyl piperidine hydrochloride] | 88.7 nM | 0.641 mg/kg
10 | CCN(C)C[C@@H]1CCCCN1C(=O)Cc1ccc2c(c1)CCCC2=O [Example 2, (2S)-1-[1-oxo-3,4-dihydro-(2H)-napht-6-yl]acetyl-2-(N-methyl-N-ethyl)aminomethyl piperidine hydrochloride] | – | 0.061 mg/kg
11 | CC(C)N(C)C[C@@H]1CCCCN1C(=O)Cc1ccc2c(c1)CCCC2=O [Example 10, (2S)-1-[1-oxo-3,4-dihydro-(2H)-napht-6-yl]acetyl-2-(N-methyl-N-isopropyl)aminomethyl piperidine hydrochloride emihydrate] | 2.87 nM | 0.078 mg/kg
12 | C#CCN(C)C[C@@H]1CCCCN1C(=O)Cc1ccc2c(c1)CCCC2=O [Example 16, (2S)-1-[1-oxo-3,4-dihydro-(2H)-napht-6-yl]acetyl-2-(N-methyl-N-propargyl)aminomethyl piperidine hydrochloride] | – | 0.056 mg/kg
13 | C=CCN(C)C[C@@H]1CCCCN1C(=O)Cc1ccc2c(c1)CCCC2=O [Example 11, (2S)-1-[1-oxo-3,4-dihydro-(2H)-napht-6-yl]acetyl-2-(N-allyl-N-methyl)aminomethyl piperidine hydrochloride] | ~50 nM | 0.13 mg/kg

— patent publication US5428042A, “1-(2H-1-oxo-3,4-dihydronaphtyl-6-yl)-acetyl-piperidines as kappa agonists” (Dr Lo Zambeletti S.p.A., priority 1990, dated 1995)
